Experimental data: ChEMBL document CHEMBL1201862, “PubChem BioAssay data set” (2004)
Active and inactive are the calls of the source.

Legend:
Vero [1] = experiment: Vero cell viability after compound exposure – synthesized analogs, set II, cytotoxicity control for West Nile virus antiviral project, SAR follow-up (AID 2402); type: functional; conditions: Chlorocebus sabaeus
Vero [2] = experiment: antiviral protection of cells from WNV – synthesized analogs, SAR follow-up (AID 2238); type: functional, cell-based; conditions: Chlorocebus sabaeus
[3] = A Cell Based Assay for the Identification of Probe candidate Compounds with Anti- Venezuelan Equine Encephalitis virus. [Related pubchem assays: 2409, 2419, 1621, 2238, 2405, 2024, 2065, 2402, 2414, 1635, 1650, 2244 ]; type: functional
Vero [4] = experiment: Vero 76 cell viability after compound exposure – Vero 76 cells, synthesized analogs, cytotoxicity control for West Nile virus antiviral project, SAR follow-up (AID 2414); type: functional; conditions: Chlorocebus sabaeus
Vero [5] = experiment: host cell viability loss, Vero E6 – synthesized analogs, cytotoxicity control for West Nile virus antiviral project, SAR follow-up (AID 2244); type: functional; conditions: Chlorocebus sabaeus
[6] = HPDE-C7 pancreatic duct cell viability loss – fluorescence, HTS (AID 430); type: functional, cell-based; conditions: Homo sapiens
[7] = target: G-protein coupled receptor 55 (Homo sapiens, UniProt Q9Y2T6); experiment: selective activators of receptor GPR55 – imaging, U2OS cells, beta-arrestin-GFP redistribution, primary screen (AID 1961); type: functional
[8] = viability loss of HPDE-C7K cells – cell-based, fluorescence, HTS, primary screen (AID 431); type: functional; conditions: Homo sapiens
[9] = target: T1, Tyrosine-protein phosphatase non-receptor type 7 (Homo sapiens, UniProt P35236); experiment: redox-active compounds inhibiting HePTP phosphatase – biochemical, fluorescence, mechanism study (AID 2068); type: functional
T1 sequence (P35236 whole entry): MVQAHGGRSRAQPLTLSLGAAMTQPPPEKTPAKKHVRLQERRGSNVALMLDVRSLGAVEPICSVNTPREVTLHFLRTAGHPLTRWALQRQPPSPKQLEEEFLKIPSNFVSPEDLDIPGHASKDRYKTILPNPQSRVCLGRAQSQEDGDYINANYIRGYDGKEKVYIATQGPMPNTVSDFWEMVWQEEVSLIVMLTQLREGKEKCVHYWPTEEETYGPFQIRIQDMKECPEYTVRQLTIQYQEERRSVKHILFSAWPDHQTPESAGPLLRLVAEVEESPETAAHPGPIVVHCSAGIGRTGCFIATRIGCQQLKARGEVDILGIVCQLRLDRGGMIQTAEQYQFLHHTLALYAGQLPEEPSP

Ephrin type-A receptor 4 = Ephrin type-A receptor 4 (Mus musculus, UniProt Q03137); experiment: EphA4 ligand-binding antagonists – biochemical, colorimetric, mouse EphA4, primary screen (AID 689); type: functional
[10] = target: Induced myeloid leukemia cell differentiation protein Mcl-1 (Homo sapiens, UniProt Q07820); type: functional
[11] = target: Eukaryotic translation initiation factor 4H (Homo sapiens, UniProt Q15056); experiment: inhibitors of translation initiation factor eIF4H – SAR follow-up (AID 435011); type: functional
[12] = target: Polyadenylate-binding protein 1 (Homo sapiens, UniProt P11940); experiment: PABP inhibition in translation initiation, SAR follow-up (AID 435018); type: functional
[13] = target: T1, Tyrosine-protein phosphatase non-receptor type 7; experiment: Dose Response confirmation of compounds that inhibit HePTP. [Related pubchem assays (depositor defined):AID1059, AID1661, AID2085]; type: functional
[14] = target: T2, Dual specificity protein phosphatase 3 (Homo sapiens, UniProt P51452); experiment: Dose Response Confirmation of compounds that inhibit VHR1 in Fluorescent Assay. [Related pubchem assays (depositor defined):AID1661, AID1878]; type: functional
[15] = target: 5-hydroxytryptamine receptor 2A (Mus musculus, UniProt P35363); type: functional, cell-based;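 further: CHO-K1 cells with tagged receptor and beta-arrestin; agonist potency measured as compound-induced activation of the receptor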
[16] = target: T3, Type-1 angiotensin II receptor (Homo sapiens, UniProt P30556); experiment: agonist activity at AGTR1 – cell-based, uHTS hits, selectivity assay for APJ receptor agonist project, dose response (AID 488865); type: functional;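 further: beta-arrestin recruitment to AT1 measured by enzyme fragment complementation luminescence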
T3 sequence (P30556 whole entry): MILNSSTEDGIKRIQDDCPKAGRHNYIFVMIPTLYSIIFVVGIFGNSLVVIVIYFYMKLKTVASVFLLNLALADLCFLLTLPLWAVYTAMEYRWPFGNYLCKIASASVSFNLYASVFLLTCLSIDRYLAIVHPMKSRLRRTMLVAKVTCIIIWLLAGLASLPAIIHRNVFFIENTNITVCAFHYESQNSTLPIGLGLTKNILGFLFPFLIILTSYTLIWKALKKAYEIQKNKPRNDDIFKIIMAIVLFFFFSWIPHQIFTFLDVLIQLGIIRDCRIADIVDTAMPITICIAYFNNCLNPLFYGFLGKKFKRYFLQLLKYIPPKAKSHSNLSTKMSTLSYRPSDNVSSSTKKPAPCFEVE

[17] = target: T4, Rac GTPase-activating protein 1 (Homo sapiens, UniProt Q9H0H5); experiment: blockers of MgcRacGAP-driven Rac1 GTP hydrolysis – biochemical, ADP Hunter fluorescence, primary and confirmatory, confirmation (AID 624330); type: functional
T4 sequence (Q9H0H5 whole entry): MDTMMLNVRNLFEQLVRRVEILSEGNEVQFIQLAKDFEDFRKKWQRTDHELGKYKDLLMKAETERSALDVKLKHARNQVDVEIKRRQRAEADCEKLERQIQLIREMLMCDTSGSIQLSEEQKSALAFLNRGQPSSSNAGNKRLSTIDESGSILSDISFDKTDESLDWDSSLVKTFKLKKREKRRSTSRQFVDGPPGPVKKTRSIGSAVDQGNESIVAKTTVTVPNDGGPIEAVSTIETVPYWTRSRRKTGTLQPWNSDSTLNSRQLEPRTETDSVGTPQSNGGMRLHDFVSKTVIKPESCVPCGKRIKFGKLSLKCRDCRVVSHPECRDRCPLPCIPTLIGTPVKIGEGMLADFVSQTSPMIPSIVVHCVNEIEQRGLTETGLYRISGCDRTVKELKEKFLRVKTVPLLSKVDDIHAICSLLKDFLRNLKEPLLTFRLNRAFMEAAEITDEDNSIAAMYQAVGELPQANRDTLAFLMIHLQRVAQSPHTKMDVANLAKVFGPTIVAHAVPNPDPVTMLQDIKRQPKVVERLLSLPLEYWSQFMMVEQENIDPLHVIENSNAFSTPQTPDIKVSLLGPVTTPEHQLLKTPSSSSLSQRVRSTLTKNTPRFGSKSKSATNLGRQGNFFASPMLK

Hexokinase = target: T5, Hexokinase (Trypanosoma brucei, UniProt Q38C41); experiment: Confirmation assay for inhibitors of Trypanosoma brucei hexokinase 1-Analogue-first series. [Related pubchem assays (depositor defined):AID1430, AID1632, AID2516, AID2560, AID2579, AID2600, AID449725, AID492951]; type: functional
T5 sequence (Q38C41 whole entry): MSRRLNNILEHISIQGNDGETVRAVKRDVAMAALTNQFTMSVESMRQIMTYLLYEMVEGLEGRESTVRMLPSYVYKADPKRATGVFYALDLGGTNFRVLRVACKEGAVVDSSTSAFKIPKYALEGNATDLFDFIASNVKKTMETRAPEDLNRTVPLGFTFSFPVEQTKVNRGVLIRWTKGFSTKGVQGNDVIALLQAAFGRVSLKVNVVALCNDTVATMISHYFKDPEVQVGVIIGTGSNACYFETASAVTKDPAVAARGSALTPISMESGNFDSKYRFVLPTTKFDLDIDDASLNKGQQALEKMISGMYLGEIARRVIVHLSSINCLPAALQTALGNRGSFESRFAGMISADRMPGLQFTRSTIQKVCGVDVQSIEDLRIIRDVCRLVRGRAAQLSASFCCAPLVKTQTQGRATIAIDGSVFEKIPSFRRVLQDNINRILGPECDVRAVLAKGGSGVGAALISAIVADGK

[18] = target: Phosphoethanolamine/phosphocholine phosphatase (Homo sapiens, UniProt Q8TCT1); experiment: SAR assay for compounds that inhibit PHOSPHO1. [Related pubchem assays (depositor defined):AID1545, AID1565, AID1574]
[19] = target: Glucose-6-phosphate 1-dehydrogenase (Homo sapiens, UniProt P11413); experiment: inhibition of Homo sapiens G6PD, dose series – biochemical, fluorescence, selectivity assay for P. falciparum G6PD inhibitor project, dose response (AID 504792); type: functional
[20] = target: Mitochondrial peptide methionine sulfoxide reductase (Bos taurus, UniProt P54149); experiment: Absorbance-based biochemical high throughput dose response assay for activators of Methionine sulfoxide reductase A (MsrA).; type: functional
Phosphomannomutase 2 = Phosphomannomutase 2 (Homo sapiens, UniProt O15305); experiment: Counter screen SAR assay for PMM2 inhibitors via a fluorescence intensity assay. [Related pubchem assays (depositor defined):AID1545, AID1574]
[21] = viability loss in HeLa cells – cytotoxicity control for MgcRacGAP inhibitor project, dose response (AID 624300); type: functional
[22] = target: T6, Mannose-6-phosphate isomerase (Homo sapiens, UniProt P34949); experiment: phosphomannose isomerase inhibition – biochemical, fluorescence intensity, confirmation (AID 1535)
T6 sequence (P34949 whole entry): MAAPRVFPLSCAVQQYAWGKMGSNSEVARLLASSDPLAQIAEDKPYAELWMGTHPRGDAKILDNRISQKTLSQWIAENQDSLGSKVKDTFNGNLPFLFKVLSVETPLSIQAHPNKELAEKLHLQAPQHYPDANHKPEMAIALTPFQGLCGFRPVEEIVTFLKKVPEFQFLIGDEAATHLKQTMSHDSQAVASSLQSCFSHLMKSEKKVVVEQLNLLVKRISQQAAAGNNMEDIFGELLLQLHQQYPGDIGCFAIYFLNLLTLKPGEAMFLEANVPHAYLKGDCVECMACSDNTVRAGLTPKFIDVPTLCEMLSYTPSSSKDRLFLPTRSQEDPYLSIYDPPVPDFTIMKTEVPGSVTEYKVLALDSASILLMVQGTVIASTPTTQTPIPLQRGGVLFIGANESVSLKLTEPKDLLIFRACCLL

[23] = target: T2, Dual specificity protein phosphatase 3; experiment: SAR VHR1 Fluorescent Assay for In Vitro dose response studies Set 2. [Related pubchem assays (depositor defined):AID1654, AID1661, AID1878]; type: functional
[24] = target: T1, Tyrosine-protein phosphatase non-receptor type 7; experiment: SAR analysis of chemical inhibitors of HePTP using a Fluorescent assay - Set 2. [Related pubchem assays (depositor defined):AID1059, AID1077, AID1661, AID2085, AID521]; type: functional

T2 sequence (P51452 whole entry): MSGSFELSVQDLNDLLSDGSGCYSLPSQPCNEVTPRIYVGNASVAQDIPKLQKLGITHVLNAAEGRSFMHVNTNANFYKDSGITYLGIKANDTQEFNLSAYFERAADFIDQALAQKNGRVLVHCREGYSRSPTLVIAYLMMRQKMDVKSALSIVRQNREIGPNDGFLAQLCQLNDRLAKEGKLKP
Chain of Polyadenylate-binding protein 1 (P11940 whole entry): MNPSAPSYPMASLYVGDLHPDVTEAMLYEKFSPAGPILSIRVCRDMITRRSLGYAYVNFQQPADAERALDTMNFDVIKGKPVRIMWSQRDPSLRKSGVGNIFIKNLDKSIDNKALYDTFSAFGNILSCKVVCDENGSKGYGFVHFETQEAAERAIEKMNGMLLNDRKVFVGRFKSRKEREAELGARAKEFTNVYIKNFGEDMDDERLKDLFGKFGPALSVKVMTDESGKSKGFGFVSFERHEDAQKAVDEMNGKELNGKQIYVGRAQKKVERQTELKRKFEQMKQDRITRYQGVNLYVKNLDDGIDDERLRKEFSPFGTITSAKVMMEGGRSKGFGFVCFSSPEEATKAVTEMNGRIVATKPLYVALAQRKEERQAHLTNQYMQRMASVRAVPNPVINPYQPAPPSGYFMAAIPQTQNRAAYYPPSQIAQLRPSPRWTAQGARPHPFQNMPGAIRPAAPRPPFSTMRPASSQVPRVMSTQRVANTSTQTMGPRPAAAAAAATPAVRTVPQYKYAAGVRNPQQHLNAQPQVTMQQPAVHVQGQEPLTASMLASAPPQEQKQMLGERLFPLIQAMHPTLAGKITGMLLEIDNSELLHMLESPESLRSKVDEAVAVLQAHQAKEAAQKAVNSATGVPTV
Chain of Mitochondrial peptide methionine sulfoxide reductase (P54149 whole entry): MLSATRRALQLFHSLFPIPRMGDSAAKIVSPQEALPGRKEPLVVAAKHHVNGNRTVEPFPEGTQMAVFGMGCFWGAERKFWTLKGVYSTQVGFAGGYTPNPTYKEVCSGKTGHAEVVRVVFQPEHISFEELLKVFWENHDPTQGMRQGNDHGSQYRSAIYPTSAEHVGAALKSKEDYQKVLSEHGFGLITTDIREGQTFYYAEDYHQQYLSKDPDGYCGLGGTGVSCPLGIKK
Chain of Phosphoethanolamine/phosphocholine phosphatase (Q8TCT1 whole entry): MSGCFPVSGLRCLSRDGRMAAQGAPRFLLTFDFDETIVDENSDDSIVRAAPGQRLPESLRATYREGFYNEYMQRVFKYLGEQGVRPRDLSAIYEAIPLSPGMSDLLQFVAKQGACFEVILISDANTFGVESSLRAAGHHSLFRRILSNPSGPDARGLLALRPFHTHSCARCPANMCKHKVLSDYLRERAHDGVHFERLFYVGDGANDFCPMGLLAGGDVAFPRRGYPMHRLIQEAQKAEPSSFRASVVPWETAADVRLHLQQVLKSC
Chain of Induced myeloid leukemia cell differentiation protein Mcl-1 (Q07820 whole entry): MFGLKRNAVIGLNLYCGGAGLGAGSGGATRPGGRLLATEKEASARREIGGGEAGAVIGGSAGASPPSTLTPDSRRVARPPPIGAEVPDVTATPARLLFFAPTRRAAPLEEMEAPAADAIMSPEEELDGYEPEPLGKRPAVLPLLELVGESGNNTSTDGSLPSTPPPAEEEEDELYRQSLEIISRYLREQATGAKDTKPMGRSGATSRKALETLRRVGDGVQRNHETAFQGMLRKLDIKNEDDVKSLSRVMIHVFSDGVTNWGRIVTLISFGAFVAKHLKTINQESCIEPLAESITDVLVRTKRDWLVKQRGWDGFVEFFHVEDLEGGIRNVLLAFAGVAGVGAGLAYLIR
Chain of Glucose-6-phosphate 1-dehydrogenase (P11413 whole entry): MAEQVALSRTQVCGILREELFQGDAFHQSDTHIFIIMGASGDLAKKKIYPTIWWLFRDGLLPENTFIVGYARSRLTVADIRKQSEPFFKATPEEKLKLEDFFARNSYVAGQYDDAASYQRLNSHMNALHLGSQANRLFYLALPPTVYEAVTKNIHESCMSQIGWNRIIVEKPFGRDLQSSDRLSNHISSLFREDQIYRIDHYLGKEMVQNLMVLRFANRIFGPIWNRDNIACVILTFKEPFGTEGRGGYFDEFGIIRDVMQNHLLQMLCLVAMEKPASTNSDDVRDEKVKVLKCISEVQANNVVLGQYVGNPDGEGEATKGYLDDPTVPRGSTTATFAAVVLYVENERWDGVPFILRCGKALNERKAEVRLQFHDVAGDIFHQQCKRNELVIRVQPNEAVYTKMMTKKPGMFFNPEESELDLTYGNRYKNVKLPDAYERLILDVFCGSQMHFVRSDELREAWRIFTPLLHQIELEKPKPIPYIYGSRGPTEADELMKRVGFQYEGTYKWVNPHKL
Chain of 5-hydroxytryptamine receptor 2A (P35363 whole entry, the tested form may be a part): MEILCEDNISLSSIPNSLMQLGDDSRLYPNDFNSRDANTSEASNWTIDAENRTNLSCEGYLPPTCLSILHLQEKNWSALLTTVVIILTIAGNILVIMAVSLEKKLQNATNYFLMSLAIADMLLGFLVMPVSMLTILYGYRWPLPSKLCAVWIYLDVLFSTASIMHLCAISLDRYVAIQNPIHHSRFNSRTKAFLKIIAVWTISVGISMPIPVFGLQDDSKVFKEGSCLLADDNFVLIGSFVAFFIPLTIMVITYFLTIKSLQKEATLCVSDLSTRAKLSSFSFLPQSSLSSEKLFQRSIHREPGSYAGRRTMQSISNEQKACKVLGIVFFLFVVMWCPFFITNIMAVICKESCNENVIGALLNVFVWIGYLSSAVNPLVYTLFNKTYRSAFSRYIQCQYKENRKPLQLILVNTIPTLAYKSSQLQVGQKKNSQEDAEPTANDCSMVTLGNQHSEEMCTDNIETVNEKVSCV
Chain of G-protein coupled receptor 55 (Q9Y2T6 whole entry): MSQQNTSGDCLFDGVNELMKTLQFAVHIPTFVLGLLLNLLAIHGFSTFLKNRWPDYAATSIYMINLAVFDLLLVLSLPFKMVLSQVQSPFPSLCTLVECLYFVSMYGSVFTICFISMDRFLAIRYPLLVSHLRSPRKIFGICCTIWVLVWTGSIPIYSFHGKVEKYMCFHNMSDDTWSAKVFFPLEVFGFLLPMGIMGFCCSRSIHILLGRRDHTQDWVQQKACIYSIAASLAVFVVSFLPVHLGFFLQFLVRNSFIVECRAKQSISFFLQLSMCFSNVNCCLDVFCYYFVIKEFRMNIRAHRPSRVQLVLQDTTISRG
Chain of Phosphomannomutase 2 (O15305 whole entry): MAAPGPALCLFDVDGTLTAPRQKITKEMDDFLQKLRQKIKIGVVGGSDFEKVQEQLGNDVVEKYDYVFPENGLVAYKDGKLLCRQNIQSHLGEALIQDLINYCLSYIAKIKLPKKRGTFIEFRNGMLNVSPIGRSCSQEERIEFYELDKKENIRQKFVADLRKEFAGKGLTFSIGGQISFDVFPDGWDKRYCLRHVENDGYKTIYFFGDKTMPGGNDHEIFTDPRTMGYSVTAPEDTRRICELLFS
Chain of Ephrin type-A receptor 4 (Q03137 whole entry): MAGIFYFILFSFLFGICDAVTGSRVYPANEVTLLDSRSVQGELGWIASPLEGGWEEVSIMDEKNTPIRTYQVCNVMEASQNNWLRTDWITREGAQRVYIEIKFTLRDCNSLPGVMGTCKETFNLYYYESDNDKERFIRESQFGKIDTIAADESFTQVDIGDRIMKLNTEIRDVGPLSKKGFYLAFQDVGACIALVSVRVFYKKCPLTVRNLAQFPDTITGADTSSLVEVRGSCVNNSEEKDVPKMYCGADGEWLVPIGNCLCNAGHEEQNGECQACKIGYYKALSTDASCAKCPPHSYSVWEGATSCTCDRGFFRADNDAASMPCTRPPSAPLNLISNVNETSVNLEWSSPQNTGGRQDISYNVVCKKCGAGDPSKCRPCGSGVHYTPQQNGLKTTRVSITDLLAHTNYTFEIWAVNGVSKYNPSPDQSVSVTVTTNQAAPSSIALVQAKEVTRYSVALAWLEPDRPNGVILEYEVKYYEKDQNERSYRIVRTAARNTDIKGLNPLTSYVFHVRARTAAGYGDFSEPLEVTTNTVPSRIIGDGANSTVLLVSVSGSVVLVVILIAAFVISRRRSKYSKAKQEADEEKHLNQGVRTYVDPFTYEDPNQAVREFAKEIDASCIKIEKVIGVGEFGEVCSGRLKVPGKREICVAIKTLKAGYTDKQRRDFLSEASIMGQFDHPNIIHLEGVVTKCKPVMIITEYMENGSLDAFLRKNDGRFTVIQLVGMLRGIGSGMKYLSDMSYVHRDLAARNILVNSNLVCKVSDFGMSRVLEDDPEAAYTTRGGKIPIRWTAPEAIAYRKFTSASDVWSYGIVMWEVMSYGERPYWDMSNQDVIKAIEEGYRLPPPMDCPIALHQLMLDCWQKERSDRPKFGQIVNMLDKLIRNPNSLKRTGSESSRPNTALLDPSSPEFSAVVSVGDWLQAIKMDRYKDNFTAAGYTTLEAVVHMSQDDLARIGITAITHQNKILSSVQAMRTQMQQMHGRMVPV

O=C(CSc1nc2ccccc2c(=O)n1-c1ccc(Cl)cc1)Nc1ccc2c(c1)CCC2
CC50 (Vero [1]): > 100 µM (active) | IC50 (Vero [2]): > 40 µM (active) | IC50 [3]: 7.56 µM (active) | CC50 (Vero [4]): > 66.6 µM (active) | CC50 (Vero [5]): > 40 µM (active)

CC/C(Nc1ccc(OC)cc1OC)=C1/C(=O)NC(=O)N(C2CCCCC2)C1=O
EC50 [6]: 12.8 µM (active) | EC50 [7]: 10.9 µM (inactive) | EC50 [8]: 16.3 µM (active)

O=S(=O)(c1ccc2nc(-c3ccco3)c(-c3ccco3)nc2c1)N1CCOCC1
IC50 [9]: 7.46 µM (active) | IC50 (Ephrin type-A receptor 4): 21.5 µM (active) | IC50 [10]: 5.65 µM (active)

COc1ccc([N+](=O)[O-])cc1NC(=O)C(C)OC(=O)c1ccccc1C(=O)c1ccc(Cl)cc1 (configuration not stated)
IC50 [11]: > 100 µM (inactive) | IC50 [12]: > 100 µM (inactive)

Cn1c2ccccc2c(=O)c2ccc(C#Cc3ccccn3)cc21
IC50 [13]: 6.64 µM (active) | IC50 [14]: 7.2 µM (active)

COC(=O)C1=C(Cn2cnc3ccccc32)NC(=O)NC1c1cc(C)ccc1C (configuration not stated)
EC50 [15]: 8.44 µM (active) | EC50 [16]: > 100 µM (inactive)

O=c1c2ccccc2sn1-c1cccc(Cl)c1
IC50 [17]: 33.9 µM (active) | IC50 (Hexokinase): 1.9 µM (active) | IC50 [18]: 5.21 µM (inactive) | IC50 [19]: 13 µM (active) | EC50 [20]: > 104 µM (inactive) | IC50 (Phosphomannomutase 2): 59.6 µM (active) | CC50 [21]: 100 µM (active) | IC50 [22]: 3.43 µM (active)

O=S(=O)(Nc1ncccn1)c1ccc(NC(=S)N2CCN(Cc3ccc4c(c3)OCO4)CC2)cc1
IC50 [23]: > 100 µM (inactive) | IC50 [24]: > 100 µM (inactive)
